Reference: ChEMBL document CHEMBL5356994, “Synthesis, biological and molecular modelling for 1,3,4-thiadiazole sulfonyl thioureas: bacterial and fungal activity” (RSC Med Chem, 2023)
≈ marks a conversion by molar mass, not a printed value.

Tests used:
[1] = system: Candida albicans; experiment: Antifungal activity against Candida albicans assessed as inhibition of fungal growth incubated for 72 hrs by agar dilution method; type: functional
[2] = system: Staphylococcus epidermidis; experiment: Antibacterial activity against Staphylococcus epidermidis assessed as inhibition of bacterial growth incubated for 18 to 20 hrs by microbroth dilution method; type: functional; details: time 18-20 hrs
[3] = system: Salmonella typhimurium; experiment: Antibacterial activity against Salmonella typhimurium assessed as inhibition of bacterial growth incubated for 18 to 20 hrs by microbroth dilution method; type: functional, Salmonella enterica subsp. enterica serovar Typhimurium; details: Salmonella enterica; time 18-20 hrs
[4] = system: Fusarium oxysporum; experiment: Antifungal activity against Fusarium oxysporum assessed as inhibition of fungal growth incubated for 72 hrs by agar dilution method; type: functional
[5] = system: Pseudomonas aeruginosa; experiment: Antibacterial activity against Pseudomonas aeruginosa assessed as inhibition of bacterial growth incubated for 18 to 20 hrs by microbroth dilution method; type: functional; details: time 18-20 hrs
[6] = system: Bacillus subtilis; experiment: Antibacterial activity against Bacillus subtilis assessed as inhibition of bacterial growth incubated for 18 to 20 hrs by microbroth dilution method; type: functional; details: time 18-20 hrs
[7] = target: Dihydrofolate reductase (Staphylococcus aureus, UniProt P0A017); experiment: Inhibition of Staphylococcus aureus dihydrofolate reductase using dihydrofolate as substrate in presence of NADPH by microplate reader analysis
Chain of Dihydrofolate reductase (P0A017 whole entry): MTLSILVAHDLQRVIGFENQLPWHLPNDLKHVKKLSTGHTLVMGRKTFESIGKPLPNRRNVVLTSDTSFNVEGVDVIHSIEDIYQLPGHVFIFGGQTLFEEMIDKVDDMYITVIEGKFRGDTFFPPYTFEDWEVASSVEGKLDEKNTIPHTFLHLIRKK

[8] = system: Aspergillus niger; experiment: Antifungal activity against Aspergillus niger assessed as inhibition of fungal growth incubated for 72 hrs by agar dilution method; type: functional
[9] = system: Staphylococcus aureus; experiment: Antibacterial activity against Staphylococcus aureus assessed as inhibition of bacterial growth incubated for 18 to 20 hrs by microbroth dilution method; type: functional; details: time 18-20 hrs
[10] = system: Escherichia coli; experiment: Antibacterial activity against Escherichia coli assessed as inhibition of bacterial growth incubated for 18 to 20 hrs by microbroth dilution method; type: functional; details: time 18-20 hrs
[11] = system: Klebsiella pneumoniae; experiment: Antibacterial activity against Klebsiella pneumoniae assessed as inhibition of bacterial growth incubated for 18 to 20 hrs by microbroth dilution method; type: functional; details: time 18-20 hrs
[12] = system: Aspergillus flavus; experiment: Antifungal activity against Aspergillus flavus assessed as inhibition of fungal growth incubated for 72 hrs by agar dilution method; type: functional
[13] = target: DNA topoisomerase 4 subunit B (Staphylococcus aureus, UniProt P0C1S7); experiment: Inhibition of Staphylococcus aureus DNA topoisomerase 4 subunit B ATPase activity using relaxed pNO1 plasmid as substrate incubated for 30 mins by microplate reader analysis
Chain of DNA topoisomerase 4 subunit B (P0C1S7 whole entry): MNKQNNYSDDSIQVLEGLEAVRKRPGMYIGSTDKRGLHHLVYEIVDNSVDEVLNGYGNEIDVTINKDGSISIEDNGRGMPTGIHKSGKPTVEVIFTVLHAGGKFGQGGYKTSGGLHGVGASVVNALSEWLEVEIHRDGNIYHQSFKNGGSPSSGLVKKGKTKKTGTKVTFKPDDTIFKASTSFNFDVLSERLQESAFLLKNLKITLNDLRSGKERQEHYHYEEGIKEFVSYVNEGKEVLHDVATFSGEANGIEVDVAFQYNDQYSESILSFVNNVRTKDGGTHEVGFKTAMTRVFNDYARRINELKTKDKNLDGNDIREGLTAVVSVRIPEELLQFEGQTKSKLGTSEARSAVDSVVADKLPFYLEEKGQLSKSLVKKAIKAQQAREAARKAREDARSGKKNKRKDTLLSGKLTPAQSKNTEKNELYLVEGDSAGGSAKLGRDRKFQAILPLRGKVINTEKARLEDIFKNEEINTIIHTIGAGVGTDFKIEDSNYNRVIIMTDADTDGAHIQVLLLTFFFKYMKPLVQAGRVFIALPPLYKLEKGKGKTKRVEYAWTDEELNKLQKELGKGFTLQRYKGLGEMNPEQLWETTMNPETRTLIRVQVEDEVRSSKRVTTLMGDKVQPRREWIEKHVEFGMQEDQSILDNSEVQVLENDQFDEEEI

[14] = system: Clostridioides difficile; experiment: Antibacterial activity against Clostridium difficile assessed as inhibition of bacterial growth incubated for 18 to 20 hrs by microbroth dilution method; type: functional; details: time 18-20 hrs
[15] = target: DNA gyrase subunit B (Staphylococcus aureus, UniProt P0A0K8); experiment: Inhibition of Staphylococcus aureus DNA gyrase subunit B ATPase activity using relaxed pNO1 plasmid as substrate incubated for 30 mins by microplate reader analysis
Chain of DNA gyrase subunit B (P0A0K8 whole entry): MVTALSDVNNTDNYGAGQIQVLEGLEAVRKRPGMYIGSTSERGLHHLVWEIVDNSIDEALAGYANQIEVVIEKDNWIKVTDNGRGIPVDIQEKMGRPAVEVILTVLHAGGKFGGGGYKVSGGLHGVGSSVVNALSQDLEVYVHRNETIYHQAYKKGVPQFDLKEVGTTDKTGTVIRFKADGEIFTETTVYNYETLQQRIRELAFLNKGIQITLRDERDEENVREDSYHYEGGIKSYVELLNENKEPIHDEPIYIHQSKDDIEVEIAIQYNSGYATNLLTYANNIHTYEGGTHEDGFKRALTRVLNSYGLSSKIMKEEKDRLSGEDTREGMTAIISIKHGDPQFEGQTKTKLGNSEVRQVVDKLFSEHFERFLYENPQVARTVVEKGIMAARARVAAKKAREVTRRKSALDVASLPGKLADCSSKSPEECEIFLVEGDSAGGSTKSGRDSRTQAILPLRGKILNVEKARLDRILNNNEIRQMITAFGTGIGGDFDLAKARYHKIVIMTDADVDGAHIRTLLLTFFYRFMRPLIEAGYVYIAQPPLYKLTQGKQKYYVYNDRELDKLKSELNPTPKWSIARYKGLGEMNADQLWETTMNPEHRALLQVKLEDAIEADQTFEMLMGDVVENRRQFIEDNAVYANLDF

[16] = system: Saccharomyces cerevisiae; experiment: Antifungal activity against Saccharomyces cerevisiae assessed as inhibition of fungal growth incubated for 72 hrs by agar dilution method; type: functional
[17] = system: Streptococcus pneumoniae; experiment: Antibacterial activity against Streptococcus pneumoniae assessed as inhibition of bacterial growth incubated for 18 to 20 hrs by microbroth dilution method; type: functional; details: time 18-20 hrs
[18] = target: Carbonic anhydrase 2 (Homo sapiens, UniProt P00918); experiment: Inhibition of human carbonic anhydrase II esterase activity using p-nitrophenol acetate as substrate and measured for 3 mins by UV/visible spectrophotometric analysis
[19] = system: Mycobacterium tuberculosis; experiment: Antitubercular activity against Mycobacterium tuberculosis H37Rv assessed as inhibition of bacterial growth incubated for 24 hrs by two-fold dilution method; type: functional
[20] = system: Candida albicans; experiment: Antifungal activity against Candida albicans assessed as inhibition of fungal growth incubated for 20 hrs by macro-broth dilution method; type: functional
[21] = system: Escherichia coli; experiment: Antibacterial activity against Escherichia coli assessed as inhibition of bacterial growth incubated for 16 to 18 hrs by serial dilution method; type: functional; details: time 16-18 hrs
[22] = system: Aspergillus flavus; experiment: Antifungal activity against Aspergillus flavus assessed as inhibition of fungal growth incubated for 16 to 18 hrs by serial dilution method; type: functional; details: time 16-18 hrs
[23] = system: Staphylococcus aureus; experiment: Antibacterial activity against Staphylococcus aureus assessed as inhibition of bacterial growth incubated for 16 to 18 hrs by serial dilution method; type: functional; details: time 16-18 hrs
[24] = system: Candida albicans; experiment: Antifungal activity against Candida albicans assessed as inhibition of fungal growth incubated for 16 to 18 hrs by serial dilution method; type: functional; details: time 16-18 hrs

Work on CCCCCc1nnc(NC(=S)NS(=O)(=O)c2ccc(C)cc2)s1 yielded an MIC [1] of 200 µg/mL (≈ 520 µM), an MIC [2] of 0.78 µg/mL (≈ 2.03 µM) and an MIC [3] of 100 µg/mL (≈ 260 µM). For the same compound, the MIC [4] was 1.56 µg/mL (≈ 4.06 µM), the MIC [5] was 0.78 µg/mL (≈ 2.03 µM) and the MIC [6] was 200 µg/mL (≈ 520 µM). For the same compound, the IC50 [7] was 0.23 µM, the MIC [8] was 3.12 µg/mL (≈ 8.13 µM) and the MIC [9] was 0.78 µg/mL (≈ 2.03 µM). For the same compound, the MIC [10] was 0.78 µg/mL (≈ 2.03 µM), the MIC [11] was 1.56 µg/mL (≈ 4.06 µM) and the MIC [12] was 12.5 µg/mL (≈ 32.5 µM). The IC50 [13] was 53.8 µM, the MIC [14] was 12.5 µg/mL (≈ 32.5 µM) and the IC50 [15] was 1.22 µM. For the same compound, the MIC [16] was 400 µg/mL (≈ 1040 µM) and the MIC [17] was 200 µg/mL (≈ 520 µM).

O=S(=O)(NC(=S)Nc1ccccc1)c1ccccc1 gave an IC50 [18] of 422 µM.

Cc1ccc(S(=O)(=O)NC(=S)Nc2nnc(C(C)C)s2)cc1 gave an MIC [1] of 6.25 µg/mL (≈ 17.5 µM), an MIC [2] of 1.56 µg/mL (≈ 4.38 µM) and an MIC [3] of 6.25 µg/mL (≈ 17.5 µM). For the same compound, the MIC [4] was 6.25 µg/mL (≈ 17.5 µM), the MIC [5] was 12.5 µg/mL (≈ 35.1 µM) and the MIC [6] was 1.56 µg/mL (≈ 4.38 µM). For the same compound, the MIC [8] was 6.25 µg/mL (≈ 17.5 µM), the MIC [9] was 12.5 µg/mL (≈ 35.1 µM) and the MIC [10] was 3.12 µg/mL (≈ 8.77 µM). It also gave an MIC [11] of 3.12 µg/mL (≈ 8.77 µM), an MIC [12] of 200 µg/mL (≈ 561 µM) and an MIC [14] of 50 µg/mL (≈ 140 µM). The MIC [16] was 100 µg/mL (≈ 281 µM) and the MIC [17] was 3.12 µg/mL (≈ 8.77 µM).

Cc1ccc(S(=O)(=O)NC(=S)Nc2nnc(CCC(C)C)s2)cc1 showed an MIC [1] of 12.5 µg/mL (≈ 32.5 µM), an MIC [2] of 6.25 µg/mL (≈ 16.3 µM) and an MIC [3] of 0.78 µg/mL (≈ 2.03 µM). The MIC [4] was 0.78 µg/mL (≈ 2.03 µM), the MIC [5] was 3.12 µg/mL (≈ 8.13 µM) and the MIC [6] was 100 µg/mL (≈ 260 µM). It also gave an IC50 [7] of 0.35 µM, an MIC [8] of 0.78 µg/mL (≈ 2.03 µM) and an MIC [9] of 1.56 µg/mL (≈ 4.06 µM). For the same compound, the MIC [10] was 25 µg/mL (≈ 65 µM), the MIC [11] was 0.78 µg/mL (≈ 2.03 µM) and the MIC [12] was 3.12 µg/mL (≈ 8.13 µM). The IC50 [13] was 66.7 µM, the MIC [14] was 1.56 µg/mL (≈ 4.06 µM) and the IC50 [15] was 1.62 µM. It also gave an MIC [16] of 0.78 µg/mL (≈ 2.03 µM) and an MIC [17] of 50 µg/mL (≈ 130 µM).

Work on Fc1ccc(NC(=S)Nc2nnc(-c3ccc(Cl)cc3)s2)cc1 yielded an MIC [19] of 11 µM (≈ 4 µg/mL).

Fc1ccc(NC(=S)Nc2nnc(-c3ccc(F)cc3)s2)cc1 gave an MIC [19] of 10.9 µM (≈ 3.8 µg/mL).

Compound O=C(O)c1cn(C2CC2)c2cc(N3CCNCC3)c(F)cc2c1=O [CIPROFLOXACIN] has an MIC [2] of 3.12 µg/mL (≈ 9.43 µM), an MIC [3] of 1.56 µg/mL (≈ 4.71 µM) and an MIC [5] of 1.56 µg/mL (≈ 4.71 µM). It also gave an MIC [6] of 3.12 µg/mL (≈ 9.43 µM), an MIC [9] of 3.12 µg/mL (≈ 9.43 µM) and an MIC [11] of 1.56 µg/mL (≈ 4.71 µM).

For CC[C@@H](CO)NCCN[C@@H](CC)CO [ETHAMBUTOL], the MIC [19] was 11.5 µM (≈ 2.35 µg/mL).

In the case of OC(Cn1cncn1)(Cn1cncn1)c1ccc(F)cc1F [FLUCONAZOLE], the MIC [20] is reported as 0.05 µg/mL (≈ 0.163 µM), the MIC [21] is reported as 6.25 µg/mL (≈ 20.4 µM) and the MIC [1] is reported as 0.78 µg/mL (≈ 2.55 µM). The MIC [4] was 0.78 µg/mL (≈ 2.55 µM), the MIC [22] was 6.25 µg/mL (≈ 20.4 µM) and the MIC [8] was 1.56 µg/mL (≈ 5.09 µM). The MIC [23] was 6.25 µg/mL (≈ 20.4 µM), the MIC [24] was 6.25 µg/mL (≈ 20.4 µM) and the MIC [12] was 0.78 µg/mL (≈ 2.55 µM). For the same compound, the MIC [16] was 0.78 µg/mL (≈ 2.55 µM).

For NNC(=O)c1ccncc1 [ISONIAZID], the MIC [19] was 17.8 µM (≈ 2.44 µg/mL).

For Clc1ccc(COC(Cn2ccnc2)c2ccc(Cl)cc2Cl)c(Cl)c1 (stereo not drawn) [MICONAZOLE], the MIC [1] was 3.12 µg/mL (≈ 7.51 µM), the MIC [4] was 3.12 µg/mL (≈ 7.51 µM) and the MIC [8] was 1.56 µg/mL (≈ 3.75 µM). The MIC [12] was 1.56 µg/mL (≈ 3.75 µM) and the MIC [16] was 3.12 µg/mL (≈ 7.51 µM).

In the case of NC(=O)N/N=C/c1ccc([N+](=O)[O-])o1 [NITROFURAZONE], the MIC [21] is reported as 6.25 µg/mL (≈ 31.5 µM), the MIC [22] is reported as 6.25 µg/mL (≈ 31.5 µM) and the MIC [23] is reported as 6.25 µg/mL (≈ 31.5 µM). It also gave an MIC [24] of 6.25 µg/mL (≈ 31.5 µM).

CN[C@H](CC(C)C)C(=O)N[C@H]1C(=O)N[C@@H](CC(N)=O)C(=O)N[C@H]2C(=O)N[C@H]3C(=O)N[C@H](C(=O)N[C@H](C(=O)O)c4cc(O)cc(O)c4-c4cc3ccc4O)[C@H](O)c3ccc(c(Cl)c3)Oc3cc2cc(c3O[C@@H]2O[C@H](CO)[C@@H](O)[C@H](O)[C@H]2O[C@H]2C[C@](C)(N)[C@H](O)[C@H](C)O2)Oc2ccc(cc2Cl)[C@H]1O [VANCOMYCIN] was tested, and the MIC [2] was 0.78 µg/mL (≈ 0.538 µM), the MIC [6] was 1.56 µg/mL (≈ 1.08 µM) and the MIC [9] was 1.56 µg/mL (≈ 1.08 µM). The MIC [14] was 1.56 µg/mL (≈ 1.08 µM) and the MIC [17] was 1.56 µg/mL (≈ 1.08 µM).
